In patent publication US12617783B2, “Heterocyclic GLP-1R agonists” (BIOMEA FUSION, INC., priority 2024, dated 2026):

Target: T1, human GLP-1R (Homo sapiens, UniProt P43220)
T1 construct: host or cells: HEK293
Test: GLP-1R cAMP assay (Example B1a, HTRF, 30 min at room temperature)
Format: cell-based
Settings: cAMP accumulation in HEK293 expressing human GLP-1R, no BETP, 30 min room temperature (Method B1a, compounds ID 1-609), Table 1; read-out: EC50
Procedure: Assay was carried out with HEK293 expressing human GLP-1R using HTRF assay, developed by Wuxi Apptec. The method is a competitive assay between native cAMP produced by the cells and exogenous cAMP labeled with a proprietary dye d2. The tracer binding is visualized by a mAb anti-cAMP labeled with Cryptate. The signal (i.e. energy transfer) is inversely proportional to the concentration of CAMP in either standard or experimental sample. Compounds were tested in the absence of BETP. Ten microliter of cell suspension in assay buffer (5 mM HEPES, 500 μM IBMX, 0.1% BSA) were added to each well (1,000 cells per well) in a low volume 384-well plate for the assay. Serially diluted compounds were added in 100 nL volume to duplicate wells, by Labcyte Echo. GLP-1 (7-37) was used as positive control. Assay plate was incubated for 30 minutes at room temperature. Stock of cAMP Detection Solution was prepared by mixing 38 parts of cAMP lysis buffer, 1 part of cAMP-D2, 1 part of anti-cAMP cryptate reagent (Cisbio #62AM4PEJ). Ten microliter of the cAMP Detection Solution was added to each well, and the assay plate was incubated for 1 hour at room temperature in the dark. Plates were read on Envision plate reader. The data were analyzed by ScreenUltra in Dotmatics, with % activation expressed using following formula: (Well data−negative control)/(postive control−negative control)*100. Dose response curves were plotted and EC50 values calculated by non-linear regression using 4-parameter fit.

T1 sequence (P43220 24-463): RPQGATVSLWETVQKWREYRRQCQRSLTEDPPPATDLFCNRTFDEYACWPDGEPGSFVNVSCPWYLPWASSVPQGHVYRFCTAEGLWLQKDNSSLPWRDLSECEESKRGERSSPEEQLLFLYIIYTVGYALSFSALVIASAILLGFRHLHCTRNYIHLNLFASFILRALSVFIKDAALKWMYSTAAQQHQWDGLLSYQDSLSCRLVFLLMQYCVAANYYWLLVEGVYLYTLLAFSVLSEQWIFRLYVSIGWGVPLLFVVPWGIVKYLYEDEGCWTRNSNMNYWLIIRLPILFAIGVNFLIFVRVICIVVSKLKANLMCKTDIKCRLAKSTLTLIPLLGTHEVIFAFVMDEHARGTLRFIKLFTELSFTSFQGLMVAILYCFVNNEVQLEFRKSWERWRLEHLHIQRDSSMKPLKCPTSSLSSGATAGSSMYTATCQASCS

Compound	EC50 [nM]
Cc1cc(-n2nc3c(c2-n2ccn(-c4cccc(C(N)=O)c4F)c2=O)[C@@H]2CC[C@H](C3)N2C(=O)c2cc3cc([C@H]4CCOC(C)(C)C4)ccc3n2C2(c3noc(=O)[nH]3)CC2)cc(C)c1F [Compound 125, 3-[3-[(1S,8R)-11-[5-[(4S)-2,2-dimethyltetrahydropyran-4-yl]-1-[1-(5-oxo-4H-1,2,4-oxadiazol-3-yl)cyclopropyl]indole-2-carbonyl]-4-(4-fluoro-3,5-dimethyl-phenyl)-4,5,11-triazatricyclo[6.2.1.02,6]undeca-2,5-dien-3-yl]-2-oxo-imidazol-1-yl]-2-fluoro-benzamide]	> 10000
Cc1cc(-n2nc3c(c2-n2ccn(-c4ccc5c(cnn5C)c4F)c2=O)[C@@H]2CC[C@H](C3)N2C(=O)c2cc3nc(C4CCOC(C)(C)C4)ccc3n2[C@@]2(c3noc(=O)[nH]3)C[C@@H]2C)cc(C)c1F (stereo partly drawn) [Compound 210, 3-[(1S,2S)-1-[5-(2,2-dimethyltetrahydropyran-4-yl)-2-[(1S,8R)-4-(4-fluoro-3,5-dimethyl-phenyl)-3-[3-(4-fluoro-1-methyl-indazol-5-yl)-2-oxo-imidazol-1-yl]-4,5,11-triazatricyclo[6.2.1.02,6]undeca-2,5-diene-11-carbonyl]pyrrolo[3,2-b]pyridin-1-yl]-2-methyl-cyclopropyl]-4H-1,2,4-oxadiazol-5-one]	959
Cc1cc(-n2nc3c(c2-n2ccn(-c4ccc5c(cnn5C)c4F)c2=O)[C@@H]2CC[C@H](C3)N2C(=O)c2cc3cc([C@@H]4CCOC(C)(C)C4)cnc3n2[C@@]2(c3noc(=O)[nH]3)C[C@@H]2C)cc(C)c1F [Compound 312, 3-((1S,2S)-1-(5-((R)-2,2-dimethyltetrahydro-2H-pyran-4-yl)-2-((4S,7R)-3-(3-(4-fluoro-1-methyl-1H-indazol-5-yl)-2-oxo-2,3-dihydro-1H-imidazol-1-yl)-2-(4-fluoro-3,5-dimethylphenyl)-2,4,5,6,7,8-hexahydro-4,7-epiminocyclohepta [c]pyrazole-9-carbonyl)-1H-pyrrolo[2,3-b]pyridin-1-yl)-2-methylcyclopropyl)-1,2,4-oxadiazol-5(4H)-one]	1340
Cc1cc(-n2nc3c(c2-n2ccn(-c4ccc5c(cnn5C)c4F)c2=O)[C@@H]2COC[C@H](C3)N2C(=O)c2cc3cc([C@@H]4CCOC5(CC5)C4)ccc3n2[C@@]2(c3noc(=O)[nH]3)C[C@@H]2C)cc(C)c1F [Compound 227, 3-((1S,2S)-1-(2-((4R,8S)-3-(3-(4-fluoro-1-methyl-1H-indazol-5-yl)-2-oxo-2,3-dihydro-1H-imidazol-1-yl)-2-(4-fluoro-3,5-dimethylphenyl)-2,4,5,7,8,9-hexahydro-4,8-epiminooxocino [5,4-c]pyrazole-10-carbonyl)-5-((R)-4-oxaspiro[2.5]octan-7-yl)-1H-indol-1-yl)-2-methylcyclopropyl)-1,2,4-oxadiazol-5 (4H)-one]	585
Cc1cc(-n2nc3c(c2-n2ccn(-c4ccc5c(cnn5C)c4F)c2=O)C2CCC([C@H]3F)N2C(=O)c2cc3cc([C@H]4CCOC(C)(C)C4)ccc3n2[C@@]2(c3noc(=O)[nH]3)C[C@@H]2C)cc(C)c1F (stereo partly drawn) [Compound 511, 3-[(1S,2S)-1-[5-[(4S)-2,2-dimethyltetrahydropyran-4-yl]-2-[(7R)-7-fluoro-4-(4-fluoro-3,5-dimethyl-phenyl)-3-[3-(4-fluoro-1-methyl-indazol-5-yl)-2-oxo-imidazol-1-yl]-4,5,11-triazatricyclo[6.2.1.02,6]undeca-2,5-diene-11-carbonyl]indol-1-yl]-2-methyl-cyclopropyl]-4H-1,2,4-oxadiazol-5-one]	588
Cc1cc(-n2nc3c(c2-n2ccn(-c4ccc5c(cnn5C)c4F)c2=O)C2CCC([C@@H]3F)N2C(=O)c2cc3cc([C@H]4CCOC(C)(C)C4)ccc3n2[C@@]2(c3noc(=O)[nH]3)C[C@@H]2C)cc(C)c1F (stereo partly drawn) [Compound 507, cis-3-((1S,2S)-1-(5-((S)-2,2-dimethyltetrahydro-2H-pyran-4-yl)-2-(8-fluoro-3-(3-(4-fluoro-1-methyl-1H-indazol-5-yl)-2-oxo-2,3-dihydro-1H-imidazol-1-yl)-2-(4-fluoro-3,5-dimethylphenyl)-2,4,5,6,7,8-hexahydro-4,7-epiminocyclohepta [c]pyrazole-9-carbonyl)-1H-indol-1-yl)-2-methylcyclopropyl)-1,2,4-oxadiazol-5 (4H)-one]	630
Cc1cc(-n2nc3c(c2-c2nc(-c4ccc5c(cnn5C)c4F)c(C)[nH]2)[C@H](C)N(C(=O)c2cc4cc([C@H]5CCOC(C)(C)C5)ccc4n2[C@@]2(c4noc(=O)[nH]4)C[C@@H]2C)CC3)cc(C)c1F [Compound 24, 3-((1S,2S)-1-(5-((S)-2,2-dimethyltetrahydro-2H-pyran-4-yl)-2-((S)-3-(4-(4-fluoro-1-methyl-1H-indazol-5-yl)-5-methyl-1H-imidazol-2-yl)-2-(4-fluoro-3,5-dimethylphenyl)-4-methyl-4,5,6,7-tetrahydro-2H-pyrazolo[4,3-c]pyridine-5-carbonyl)-1H-indol-1-yl)-2-methylcyclopropyl)-1,2,4-oxadiazol-5 (4H)-one]	> 10000
Cc1cc(-n2nc3c(c2-n2ccn(-c4ccc5c(cnn5C)c4F)c2=O)[C@@H]2COC[C@H](C3)N2C(=O)c2cc3cc([C@H]4CCOC5(CC5)C4)ccc3n2[C@@]2(c3noc(=O)[nH]3)C[C@@H]2C)cc(C)c1F [Compound 226, 3-((1S,2S)-1-(2-((4R,8S)-3-(3-(4-fluoro-1-methyl-1H-indazol-5-yl)-2-oxo-2,3-dihydro-1H-imidazol-1-yl)-2-(4-fluoro-3,5-dimethylphenyl)-2,4,5,7,8,9-hexahydro-4,8-epiminooxocino [5,4-c]pyrazole-10-carbonyl)-5-((S)-4-oxaspiro[2.5]octan-7-yl)-1H-indol-1-yl)-2-methylcyclopropyl)-1,2,4-oxadiazol-5 (4H)-one]	435
Cc1cc(-n2nc3c(c2-n2ccn(-c4ccc5c(cnn5C)c4F)c2=O)[C@@H]2CC[C@H](C3)N2C(=O)c2cc3cc([C@@H]4CCOC5(CC5)C4)ccc3n2[C@]2(c3noc(=O)[nH]3)C[C@H]2C)cc(C)c1F [Compound 516, 3-[(1R,2R)-1-[2-[(1S,8R)-4-(4-fluoro-3,5-dimethyl-phenyl)-3-[3-(4-fluoro-1-methyl-indazol-5-yl)-2-oxo-imidazol-1-yl]-4,5,11-triazatricyclo[6.2.1.02,6]undeca-2,5-diene-11-carbonyl]-5-[(7R)-4-oxaspiro[2.5]octan-7-yl]indol-1-yl]-2-methyl-cyclopropyl]-4H-1,2,4-oxadiazol-5-one]	≥ 10000
Cc1cc(-n2nc3c(c2-n2ccn(-c4ccc5c(cnn5C)c4F)c2=O)[C@@H]2CCC[C@H](C3)N2C(=O)c2c(C)c3cc([C@H]4CCOC(C)(C)C4)ccc3n2[C@@]2(c3noc(=O)[nH]3)C[C@@H]2C)cc(C)c1F [Compound 537, 3-[(1S,2S)-1-[5-[(4S)-2,2-dimethyltetrahydropyran-4-yl]-2-[(1S,8R)-4-(4-fluoro-3,5-dimethyl-phenyl)-3-[3-(4-fluoro-1-methyl-indazol-5-yl)-2-oxo-imidazol-1-yl]-4,5,12-triazatricyclo[6.3.1.02,6]dodeca-2,5-diene-12-carbonyl]-3-methyl-indol-1-yl]-2-methyl-cyclopropyl]-4H-1,2,4-oxadiazol-5-one]	1340
